“And” between values parts separate entries of the source, which are not always exact repeats. Equal values may be shown once.
Legend:
OATP1B3 = target: T1, OATP1B3 (Homo sapiens, UniProt Q9NPD5); test: Transporter inhibition assay, OATP1B3; assay type: cell-based; conditions: cell line (HEK293 or MDCKII) stably expressing OATP1B3
T1 sequence (Q9NPD5 1-702): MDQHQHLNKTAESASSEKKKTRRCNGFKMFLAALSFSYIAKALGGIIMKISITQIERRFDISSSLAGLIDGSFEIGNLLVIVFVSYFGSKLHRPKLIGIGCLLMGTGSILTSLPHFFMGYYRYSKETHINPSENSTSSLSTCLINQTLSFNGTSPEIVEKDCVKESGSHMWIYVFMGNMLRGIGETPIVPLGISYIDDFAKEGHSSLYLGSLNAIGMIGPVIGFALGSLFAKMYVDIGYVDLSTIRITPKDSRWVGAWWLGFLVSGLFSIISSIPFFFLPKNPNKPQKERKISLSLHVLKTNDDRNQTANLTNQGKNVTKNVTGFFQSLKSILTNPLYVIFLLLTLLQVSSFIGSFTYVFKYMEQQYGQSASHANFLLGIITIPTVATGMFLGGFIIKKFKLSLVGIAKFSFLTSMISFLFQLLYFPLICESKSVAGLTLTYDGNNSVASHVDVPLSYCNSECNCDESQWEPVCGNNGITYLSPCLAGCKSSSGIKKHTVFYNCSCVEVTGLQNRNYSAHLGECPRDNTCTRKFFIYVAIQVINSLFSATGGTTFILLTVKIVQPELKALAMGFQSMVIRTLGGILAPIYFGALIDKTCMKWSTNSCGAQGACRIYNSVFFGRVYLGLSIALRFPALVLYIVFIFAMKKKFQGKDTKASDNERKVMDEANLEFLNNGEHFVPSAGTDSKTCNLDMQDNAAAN

MATE2-K = MATE2-K (Homo sapiens, UniProt Q86VL8); test: Transporter inhibition assay, MATE2-K; assay type: cell-based; conditions: isolated alkaloids, mean [95% CI], three technical replicates
MATE2-K, sequence (Q86VL8 1-566 isoform Q86VL8-3): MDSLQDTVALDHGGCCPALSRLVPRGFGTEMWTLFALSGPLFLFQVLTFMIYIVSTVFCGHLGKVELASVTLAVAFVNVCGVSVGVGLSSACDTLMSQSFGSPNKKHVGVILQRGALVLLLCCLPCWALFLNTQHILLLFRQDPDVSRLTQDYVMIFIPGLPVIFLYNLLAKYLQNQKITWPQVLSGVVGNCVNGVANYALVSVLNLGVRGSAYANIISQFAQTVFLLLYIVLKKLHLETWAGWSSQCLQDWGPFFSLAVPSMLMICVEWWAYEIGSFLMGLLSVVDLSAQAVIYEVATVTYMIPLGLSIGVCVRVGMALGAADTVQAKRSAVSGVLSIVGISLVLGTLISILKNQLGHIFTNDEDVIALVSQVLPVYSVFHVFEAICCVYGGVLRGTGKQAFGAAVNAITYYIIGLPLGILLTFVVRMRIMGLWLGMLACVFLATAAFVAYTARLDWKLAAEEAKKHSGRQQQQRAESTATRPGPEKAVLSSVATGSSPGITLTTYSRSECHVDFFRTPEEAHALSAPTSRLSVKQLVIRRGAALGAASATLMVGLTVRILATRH

[1] = Estimated berberine concentrations and parameters for the basic models; conditions: 29.8 mg berberine in a 1-gram capsule / 250 mL
OAT1 = target: T2, OAT1 (Homo sapiens, UniProt Q4U2R8); test: Transporter inhibition assay, OAT1; assay type: cell-based; conditions: cell line (HEK293 or MDCKII) stably expressing OAT1
T2 sequence (Q4U2R8 1-563): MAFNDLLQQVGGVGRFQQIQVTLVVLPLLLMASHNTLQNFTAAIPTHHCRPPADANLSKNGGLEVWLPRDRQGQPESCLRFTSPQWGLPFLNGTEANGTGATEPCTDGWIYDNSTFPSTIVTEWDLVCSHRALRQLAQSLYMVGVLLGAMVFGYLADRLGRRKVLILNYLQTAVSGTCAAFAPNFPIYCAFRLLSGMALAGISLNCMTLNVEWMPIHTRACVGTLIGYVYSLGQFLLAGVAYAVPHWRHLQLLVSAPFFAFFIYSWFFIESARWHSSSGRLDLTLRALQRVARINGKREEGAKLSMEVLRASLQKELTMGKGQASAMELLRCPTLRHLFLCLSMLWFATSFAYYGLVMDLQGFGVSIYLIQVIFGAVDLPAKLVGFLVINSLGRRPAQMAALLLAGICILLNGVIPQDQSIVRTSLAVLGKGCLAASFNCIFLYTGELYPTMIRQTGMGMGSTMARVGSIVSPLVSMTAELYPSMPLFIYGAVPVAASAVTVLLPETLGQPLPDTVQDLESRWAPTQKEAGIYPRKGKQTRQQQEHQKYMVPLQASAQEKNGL

all transporters tested = test: Transporter inhibition assays, summary over the panel; conditions: against all transporters tested

| Structure (SMILES) | inhibition at 100 μM (OATP1B3) | IC50 (MATE2-K) | estimated concentration in the gut (Igut) [1] | inhibition at 100 μM (OAT1) | IC50 (all transporters tested) |
| --- | --- | --- | --- | --- | --- |
| COc1ccc2cc3[n+](cc2c1OC)CCc1cc2c(cc1-3)OCO2 [Berberine, berberine chloride] | < 20% | < 1000 nM and 770 nM | ~ 350 μM | – | – |
| CN1CCc2cc3c(cc2C1O)OCO3 (stereo not drawn) [Hydrastinine, hydrastinine chloride monohydrate] | < 20% | – | – | < 20% | ≥ 80000 nM |

From publication PMC8058163 (Clinical pharmacology and therapeutics, 2020)
